Experiments:
[1] = system: Cath.a cells; assay: In vitro neuroprotection assay (MPTP/MPP+ cytotoxicity, MTT cell viability); format: cell-based, mouse
Experimental: (§1) Cell lines used were from ATCC. Cath.a cells (sp. = mouse, cat# CRL-11179, ATCC, Manassas, Virginia, US), a CNS catecholaminergic cell line, were cultured according to ATCC instructions and were induced to CAD differentiated status by serum deprivation (0.5% FBS culture for 36 h) prior to experiments as described (Qi et al., 1997, Neurosci, 17, 1217-25). PC12 (sp. = rat, ATCC #CRL-1721) were cultured in RPMI 10% FBS. PC12 differentiation used Minimal Essential M medium containing 1% HS and 0.5% FBS, then the cells were treated with 100 ng/ml NGF, 100 ng/ml basic fibroblast growth factor (bFGF), and serum-starved media containing 2 mg/ml BSA for 2 days (Joen et al., 2010. Synapse, 64, pgs 765-72).
Neuroprotective effects were assessed based on the ability of both individual compounds and mixtures of compounds to protect against neuronal cell death induced by 1-methyl-4-phenylpyridinium (MPP+) in the 1-methyl-4-phenyl-1,2,3,6-tetrahydropyridine (MPTP)-based selective cytotoxicity assay (Arshad et al., 2014, Acta Biochim Biophys Sin (Shanghai), 46, 22-30). MPP+ is an active metabolite of MPTP that is known to cause human Parkinsonism after injection. […] Cell viability was assessed 24 h after exposure to MPP, which is […] after exposure to the tested compound or compound mixture. […]

[2] = system: differentiated PC12 cells; assay: In vitro dopamine-release assay (Dopamine ELISA); format: cell-based, rat; details: 10 µM of each compound; 30 mins; normalized to PMA/Ionomycin control; mean +/- SD
Experimental: as §1
In parallel with the neuroprotection assays, cannabinoid and terpene compounds were tested alone and in mixtures to determine their effects on dopamine release from differentiated PC12 cells. PC12 cells were differentiated as in (Joen et al., 2010. Synapse, 64, pgs 765-72; Hu et al., 2018, Int J Mol Med, 41, 195-201). Supernatant samples were collected from 3 replicate wells 30 mins after application of PMA/Ionomycin (positive control) or the indicated compounds, and dopamine was measured in the medium using the Dopamine ELISA Kit #KA1887 from Abnova (Abnova, California, US) according to manufacturer’s instructions. […]

[3] = system: zebrafish larvae; assay: Validation of the larval zebrafish OHDA model; format: in vivo
Experimental: All compounds were diluted in 100% methanol (MeOH) and experiments were performed in a HEPES buffered E3 (HE3) medium (5 mM NaCl, 0.17 mM KCl, 0.33 mM CaCl2-2H2O, 0.33 mM MgSO4-7H2O, 10 mM HEPES, pH 7.2). Individual 120 hours post fertilization (hpf) larval zebrafish were transferred to a 48-well microtiter plate in 500 µL of HE3 media. Larvae were acclimated for at least one hour in a lighted 28.5° C. incubator (photon flux: 3-5 µmol s-1 m2) prior to experimentation and larval behavior was analyzed using DanioVision larval tracking systems with EthoVisionXT14/15 software (Noldus Information Technology Inc., Virginia, USA). Distance traveled was measured using dynamic subtraction at 28.5° C. over 120 minutes with the first 90 minutes under lighted conditions (15 µmol m-2 s-1), followed by alternating 5-minute dark/light cycles. Each larvae represents an independent measurement. […] 12 larvae were used in each experimental condition, and at least 2 replicates of each concentration were performed.
Larvae were exposed to varying concentrations of 6-hydroxydopamine (OHDA) from 48-120 hours post fertilization (hpf). 15 dechorionated larvae were transferred in 5 mL of HE3 to each well of a six-well plate. The 5 mL exposure media was replaced daily, and ascorbic acid/saline buffer (used to resuspend OHDA) was used as a vehicle control. Larvae were then loaded into 48-well microtiter plate in 500 µL of HE3 media as described above.
In addition to distance travelled, activity was measured as a percentage change in pixel density during data acquisition. […] The frequency with which larvae switched between activity states and the cumulative duration of time spent in each activity state was then measured. Metrics were captured in 1 min bins, and the average over 90 minutes was used to calculate each metric in each activity state. For frequency calculations, the number of times larvae switched between activity states (high, moderate, and low) was calculated (termed Total Frequency). The cumulative amount of time spent in the high and moderate activity states combined (termed Cumulative Duration) was averaged over 90 minutes and measured as a percentage.

With CCCCCc1cc(O)c2c(c1)OC(C)(CCC=C(C)C)C=C2 (centres unmarked) [CBC, Cannabichromene] the “neuroprotective effect of individual compounds” value ([1]; 10 µM, MPTP/MPP+ induced apoptosis) was “all of the individual cannabinoids except CBC displayed some neuroprotective effects”.

C=C(C)[C@@H]1CCC(C)=C[C@H]1c1c(O)cc(CCCCC)cc1O [CBD, Cannabidiol] was tested, and the “effect of adding a major cannabinoid to MIX-1, MIX-2, MIX-3 on cell survival” value ([1]; 10 µM each, equimolar) was “increased cell survival in all three mixtures” and the DOPA release [2] was 6.0 +/- 0.3%.

For CCCCCc1cc(O)c2c(c1)OC(C)(C)c1ccc(C)cc1-2 [CBN, Cannabinol], the DOPA release [2] was 8.1 +/- 0.4%.

With NCCc1cc(O)c(O)cc1O [OHDA, 6-hydroxydopamine] the startle response ([3]; 150 µM OHDA) was “not impacting the startle response”, the “maximum response to the light/dark transition (startle response)” value ([3]; 225 µM OHDA) was “non-significant increase in the maximum response to the light/dark transition” and the “baseline activity during initial 90-minute period in the light” value ([3]; OHDA exposure 48-120 hpf) was “concentration-dependent decrease in the baseline activity”. The “fraction of time in high activity” value ([3]; OHDA treated larvae) was 1%, the “fraction of time in moderate activity” value ([3]; OHDA treated larvae) was 5% and the “fraction of time in the inactive state” value ([3]; OHDA treated larvae) was ~ 90%. For the same molecule, the “reduction in activity state transitions for all three states” value ([3]; OHDA treatment vs untreated) was 50-60%.

Reference: US20230263766A1, “CANNABINOID-CONTAINING FORMULATIONS FOR PARKINSONIAN MOVEMENT DISORDERS” (GBS Global BioPharma, Inc., priority 2021, published 2023)
